Data: patent US20240158430A1, “NOVEL COMPOUND OR SALT THEREOF, AND ANTITUMOR ACTIVATOR CONTAINING SAME AS ACTIVE INGREDIENT” (AKITA UNIVERSITY, priority 2021, published 2024)
Values joined by “and” are separate entries in the source; they are usually repeats but may differ in a detail not shown here. Identical values can stand only once. Like-named read-outs stand apart in the source and are kept apart here.

Columns and labels:
[1] = test system: colorectal cancer cell line HCT116; experiment: Cell growth inhibitory activity, HCT116; type: cell-based
Method: (§1) The cell growth inhibitory activity against a colorectal cancer cell line HCT116 was measured. As an index of cell growth inhibitory activity, a concentration at which cell growth was inhibited by 50% as compared with a control (IC50) was used. The method is as follows. HCT116 was added to a 6-well plate by 5×10^4, compounds having various concentrations were added after 24 hours, and the number of cells was counted after 72 hours of culture. As the control, DMSO was used in an amount equal to the amount added in accordance with the addition concentration of the highest-concentration compound. The number of cells at each concentration relative to the control was expressed as a percentage.
(§2) The method is as described above.
(§3) The cell growth inhibitory activity (IC50) of each of curcumin, GO-Y199, and GO-Y206 against the colorectal cancer cell lines DLD-1 and HCT116 and the gastric cancer cell lines KATO III and H-111-TC was measured. The method is as described above.

[2] = test system: breast cancer cell line HCC1395; experiment: Cell growth inhibitory activity, HCC1395; type: cell-based
Method: [The source words this procedure for another cell line and reports this cell line under the same test.] as §1, §2

[3] = test system: gastric cancer cell line SH-10-TC; experiment: Cell growth inhibitory activity, SH-10-TC; type: cell-based
Method: [The source words this procedure for another cell line and reports this cell line under the same test.] as §1, §2

[4] = test system: colorectal cancer cell line DLD-1; experiment: Cell growth inhibitory activity, DLD-1; type: cell-based
Method: as §1, §2, §3

[5] = test system: colorectal cancer cell line HT29; experiment: Cell growth inhibitory activity, HT29; type: cell-based; conditions: Table 4; 72 hours
[6] = test system: gastric cancer cell line H-111-TC; experiment: Cell growth inhibitory activity, H-111-TC; type: cell-based; conditions: Table 6
Method: as §1, with “percentage. In Table 3, the turbidities of the compounds are also indicated.” for “percentage.”
The cell growth inhibitory activity (IC50) of each of curcumin, GO-Y199, and GO-Y206 against the colorectal cancer cell lines DLD-1 and HCT116 and the gastric cancer cell lines KATO III and H-111-TC was measured. The method is as described above. FIG. 8 indicates the results of cell growth inhibitory activity of these compounds against various cancer cell lines.

[7] = test system: pancreatic cancer cell line ASPC-1; experiment: Cell growth inhibitory activity, ASPC-1; type: cell-based; conditions: Table 7
Method: [The source words this procedure for another cell line and reports this cell line under the same test.] as §1, §2

[8] = test system: malignant pleural mesothelioma cell line NCI-H226; experiment: Cell growth inhibitory activity, NCI-H226; type: cell-based; conditions: Table 8
Method: as §1, with “percentage. In Table 3, the turbidities of the compounds are also indicated.” for “percentage.”
GO-Y198, GO-Y199, and GO-Y200 against malignant pleural mesothelioma cell lines NCI-H226 and MSTO211H was measured. The method is as described above. For comparison, the IC50 of cisplatin (CDDP), a cytocidal anticancer agent, is also indicated.

[9] = test system: malignant melanoma cell line G361; experiment: Cell growth inhibitory activity, G361; type: cell-based; conditions: Table 9
Method: [The source words this procedure for another cell line and reports this cell line under the same test.] as §1, §2

[10] = test system: cutaneous T-cell lymphoma cell line HH; experiment: Cell growth inhibitory activity, HH; type: cell-based; conditions: Table 10
Method: [The source words this procedure for another cell line and reports this cell line under the same test.] as §1, §2

[11] = test system: cutaneous T-cell lymphoma cell line HUT78; experiment: Cell growth inhibitory activity, HUT78; type: cell-based; conditions: Table 10
Method: [The source words this procedure for another cell line and reports this cell line under the same test.] as §1, §2

[12] = test system: vascular endothelial cells HUVEC-R resistant to Ki8751; experiment: Angiogenesis inhibitory activity, HUVEC-R; type: cell-based; conditions: Table 11; number of cells after 72 hours
Method: HUVEC-R was cultured in the presence of each compound using an EGMTM-2 Bullet Kit (Takara Bio Inc., Otsu, Japan), and the number of cells was measured after 72 hours. In addition, IC50 was determined from the results.

HCT116 = experiment: Cytocidal effect, HCT116; type: cell-based; conditions: 2 μM and 5 μM, cells counted after 48 and 72 hours
Method: The method is as follows. Each cell line was added to 6-well plate by 5×10^4, 2 μM and 5 μM of GO-Y199 were added after 24 hours, and the number of cells was counted after 48 hours and 72 hours.

[13] = Blood concentration after intravenous injection; type: in vivo, BALB/cSlc-nu/+ mice; conditions: mouse, 1 mg tail vein
Method: The blood concentration of GO-Y199 after intravenous injection was investigated. The method is as follows. To BALB/cSlc-nu/+ mice, the equivalent of 1 mg of GO-Y199 was injected into the tail vein as described above, blood was collected from the orbital vein over time, and the serum was subjected to HPLC to measure the blood concentration of GO-Y199. FIG. 27 indicates results of HPLC analysis of blood after intravenous injection. FIG. 28 indicates results of changes over time in the blood concentration of GO-Y199 after intravenous injection.

Safety and toxicity test = type: in vivo, mouse
Method: In vivo safety and toxicity of GO-Y199 were investigated. The method is as follows. As described above, the equivalent of 1 mg of GO-Y199 was injected into the tail vein, blood was collected from the orbital vein 7 days later, and a hemoglobin value (Hb), the number of white blood cells (WBC), and the number of platelets (Plt) were measured with Cell tac MEK-5258 (available from Nihon Kohden Corporation). A creatinine value (Cre), a total bilirubin value (T-Bil), and an AST value were subjected to outsourcing (measured in Skylight Biotech Inc.). FIG. 29 indicates change in body weight of mice after intravenous injection. FIG. 30 indicates photographs of the tail of the mouse after intravenous injection.

[14] = individual mice, 7 days after 1 mg iv

**Q.** Which results are given for `COCOc1cc(/C=C/C(=O)CC(SCCOCCOCCOCCOCc2cn([C@@H]3O[C@H](CO)[C@@H](O[C@@H]4O[C@H](CO)[C@H](O)[C@H](O)[C@H]4O)[C@H](O)[C@H]3O)nn2)c2cc(OCOC)cc(OCOC)c2)cc(OCOC)c1` (stereo partly drawn) [GO-Y199]?
**A.** IC50 ([1]; Table 3, HCT116, cell count after 72 hours of culture vs DMSO control, read-out: IC50): 0.43 µM; GO-Y199 vs GO-Y030 (IC50 comparison), HCT-116 ([1]; Table 5, ratio of IC50): 0.65; GO-Y199 vs curcumin (IC50 comparison), HCT-116 ([1]; Table 5, ratio of IC50): 0.029; IC50 ([1]; Table 6, read-out: IC50 (μM) HCT116): 0.98 µM; IC50 ([1]; read-out: IC50 HCT-116, Table 4, 72 hours): 0.46 µM; IC50 ([2]; Table 4, 72 hours): 720 nM; GO-Y199 vs GO-Y030 (IC50 comparison), HCC1395 ([2]; Table 5, ratio of IC50): 0.34; IC50 ([3]; Table 4, 72 hours): 1000 nM; GO-Y199 vs GO-Y030 (IC50 comparison), SH-10-TC ([3]; Table 5, ratio of IC50): 0.65; GO-Y199 vs curcumin (IC50 comparison), SH-10-TC ([3]; Table 5, ratio of IC50): 0.124; IC50 ([4]; Table 4, 72 hours, read-out: IC50 DLD-1): 0.26 µM; GO-Y199 vs GO-Y030 (IC50 comparison), DLD-1 ([4]; Table 5, ratio of IC50): 0.36; GO-Y199 vs curcumin (IC50 comparison), DLD-1 ([4]; Table 5, ratio of IC50): 0.014; IC50 ([4]; Table 6, read-out: IC50 (μM) DLD-1): 0.85 µM; IC50 [5]: 750 nM; IC50 [6]: 2.9 µM; IC50 [7]: 1.03 µM; IC50 [8]: 4.7 µM; IC50 [9]: 1.4 µM; IC50 [10]: 1.11 µM; IC50 [11]: 0.84 µM; IC50 [12]: 0.96 µM; cytocidal effect (HCT116): cytocidal effect; time for which the blood concentration is maintained [13]: 3 h; time after which GO-Y199 disappeared from the blood ([13]; serum HPLC): 180 min; time until which the blood concentration rapidly decreased ([13]; serum HPLC): 60 min; Cre (mg/dL) Ave. ± SD (Safety and toxicity test; 7 days after 1 mg iv, control 0.24 ± 0.15): 0.15 ± 0.02 mg/dL; T-Bil (mg/dL) Ave. ± SD (Safety and toxicity test; 7 days after 1 mg iv, control 0.47 ± 0.17): 0.33 ± 0.19 mg/dL; AST (U/L) Ave. ± SD (Safety and toxicity test; 7 days after 1 mg iv, control 65.0 ± 9.1): 62.0 ± 8.6 U/L; hematology and blood chemistry vs control group (Safety and toxicity test; Tables 12 and 13): no significant difference; body weight vs control group (Safety and toxicity test; after intravenous injection): no difference in body weight; local finding in the tails (Safety and toxicity test; after tail vein injection): no local abnormal finding; AST (U/L) (Safety and toxicity test; [14]): 63 U/L and 72 U/L and 51 U/L; Cre (Safety and toxicity test; [14]): 0.18 mg/dL and 0.14 mg/dL and 0.13 mg/dL; T-Bil (Safety and toxicity test; [14]): 0.2 mg/dL (2×) and 0.6 mg/dL; overall safety (Safety and toxicity test; mouse model): safe
